Bridge positions count the residues as written; N and C are the ends. Square brackets hold non-standard residues; d marks the D form. Peptide text beside a SMILES is read from it. d2Nal = N[C@H](Cc1ccc2ccccc2c1)C(=O)O
What was measured:
rat MC4R [1] = biological target: T1, rat MC4R (Rattus norvegicus, UniProt P70596); experiment: Inhibition of agonist-induced cAMP production by rat MC4R in transfected COS-7 cells (antagonist mode)
human MC4R = human MC4R (Homo sapiens, UniProt P32245); experiment: cAMP production by human MC4R in transfected COS-7 cells (agonist mode)
Sequence of human MC4R (P32245 whole entry): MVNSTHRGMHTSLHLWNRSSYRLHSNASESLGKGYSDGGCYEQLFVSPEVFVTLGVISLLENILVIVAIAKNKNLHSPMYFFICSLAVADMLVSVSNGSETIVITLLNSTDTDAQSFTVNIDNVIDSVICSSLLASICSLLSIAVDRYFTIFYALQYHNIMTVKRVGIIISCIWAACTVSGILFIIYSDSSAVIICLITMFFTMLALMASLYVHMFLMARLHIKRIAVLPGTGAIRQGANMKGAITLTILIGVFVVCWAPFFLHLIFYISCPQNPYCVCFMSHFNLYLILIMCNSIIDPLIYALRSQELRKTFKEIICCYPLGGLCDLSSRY

rat MC4R [2] = biological target: T1, rat MC4R; experiment: cAMP production by rat MC4R in transfected COS-7 cells (agonist mode)
[3] = tested on: human gut specimens (duodenum, ileum and colon); conditions: incubation of human gut specimens from duodenum; cited from earlier work
Description: Glucagon-like peptide-1 (GLP-1) is a gastrointestinal hormone that is secreted from intestinal L-cells after meal intake. It acts to inhibit appetite and potentiate glucose-stimulated insulin secretion ([1]–[3]). These actions led to the development of GLP-1 based drugs, which have been used for more than a decade for type-2-diabetes treatment and recently also to induce weight loss. In parallel with the development and refinement of GLP-1 based drugs, research has been directed at uncovering the molecular mechanisms responsible for GLP-1 secretion, aiming to create a therapeutically relevant ...

[4] = tested on: isolated perfused rat distal small intestine; experiment: GLP-1 secretion from isolated perfused rat distal small intestine
Protocol: Male Wistar rats (~250 g) and male C57BL/6JRj mice (~28 g, 11–12 weeks) were purchased from the Janvier Labs (Le Genest-Saint-Isle, France). Mice and rats were housed with ad libitum access to standard chow and water following a 12:12 h light:dark cycle and were acclimatized for a least a week before experiments. On the day of experiment, rats and mice were transferred to our perfusion facility and anesthetized with a subcutaneous injection of hypnorm/midazolam (rats) (0.3 ml/100 g body weight, per ml: 0.08 mg fentanyl, 2.5 mg fluanisone, 0.45 mg Methyl Parahydroxybenzoate, 0.05 mg Propyl Parahydroxybenzoate, Midazolam: 1.25 mg, Matrix Pharmaceuticals, Hellerup, Denmark) or with an intraperitoneal injection of Ketamine/Xylazine (0.1 ml/20 g) (90 mg/kg Ketamine, Ketaminol Vet, MSD Animal Health; 10 mg/kg Xylazine, Rompun Vet., Bayer Animal Health) respectively, to block the activity of pain sensing nerves and to induce surgical anesthesia. For distal perfusions, the rat or mouse was placed on a heated operating table (37°C), the abdominal cavity was opened by a mid-line incision and the large intestine was excised after tying off the supplying vasculature. Furthermore, the upper half of the small intestine was removed. In the rat, the lower half of the small intestine (~50 cm) was retained and perfused in situ after insertion of a catheter into the upper mesenteric artery, while perfusion effluent was collected through a catheter inserted in the portal vein. […]
(§1) Total GLP-1 concentrations in venous effluents were quantified using an in-house RIA (code: 89390) ([23]). […] Samples were assayed non-extracted and concentrations were calculated by a four-parameter interpolation to a standard curve containing synthetic GLP-1 7–36 amide (H-6795-GMP, Bachem, Bubendorf, Switzerland) ranging from 5 to 320 pmol/L. I^125-labeled GLP-1 7–36 amide (a gift from Novo Nordisk A/S, Bagssværd, Denmark) was used as tracer. […]

[5] = tested on: isolated perfused mouse small intestine, upper half; experiment: GLP-1 secretion from isolated perfused mouse small intestine, upper half; conditions: vascular administration at end of experiments
Protocol: (§2) Male Wistar rats (~250 g) and male C57BL/6JRj mice (~28 g, 11–12 weeks) were purchased from the Janvier Labs (Le Genest-Saint-Isle, France). Mice and rats were housed with ad libitum access to standard chow and water following a 12:12 h light:dark cycle and were acclimatized for a least a week before experiments. On the day of experiment, rats and mice were transferred to our perfusion facility and anesthetized with a subcutaneous injection of hypnorm/midazolam (rats) (0.3 ml/100 g body weight, per ml: 0.08 mg fentanyl, 2.5 mg fluanisone, 0.45 mg Methyl Parahydroxybenzoate, 0.05 mg Propyl Parahydroxybenzoate, Midazolam: 1.25 mg, Matrix Pharmaceuticals, Hellerup, Denmark) or with an intraperitoneal injection of Ketamine/Xylazine (0.1 ml/20 g) (90 mg/kg Ketamine, Ketaminol Vet, MSD Animal Health; 10 mg/kg Xylazine, Rompun Vet., Bayer Animal Health) respectively, to block the activity of pain sensing nerves and to induce surgical anesthesia. […]
as §1

[6] = tested on: isolated perfused distal mouse small intestine; experiment: GLP-1 secretion from isolated perfused mouse small intestine, distal part; conditions: vascular administration at end of experiment
Protocol: as §2, §1

T1 sequence (P70596 whole entry): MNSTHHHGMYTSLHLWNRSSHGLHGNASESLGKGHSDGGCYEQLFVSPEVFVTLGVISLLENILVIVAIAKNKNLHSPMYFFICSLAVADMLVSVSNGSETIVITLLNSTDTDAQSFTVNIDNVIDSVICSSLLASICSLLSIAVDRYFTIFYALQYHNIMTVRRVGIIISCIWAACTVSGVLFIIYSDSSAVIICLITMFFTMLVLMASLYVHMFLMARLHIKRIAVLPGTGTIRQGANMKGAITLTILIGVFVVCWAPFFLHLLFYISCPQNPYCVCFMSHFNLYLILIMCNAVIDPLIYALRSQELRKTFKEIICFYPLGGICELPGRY

`CC(=O)N[C@H]1CSSC[C@@H](C(=O)N2CCC[C@H]2C(=O)N2CCC[C@H]2C(=O)N[C@@H](CCCCN)C(=O)N[C@@H](CC(=O)O)C(N)=O)NC(=O)CNC(=O)[C@H](Cc2c[nH]c3ccccc23)NC(=O)[C@H](CCCNC(=N)N)NC(=O)[C@@H](Cc2ccc3ccccc3c2)NC(=O)[C@H](Cc2c[nH]cn2)NC(=O)[C@H](CCC(=O)O)NC1=O` [HS014] (Ac-CEH[d2Nal]RWGCPPKD-NH2; disulfide 1-8) gave an IC50 (rat MC4R [1]) of 6.31 nM, an EC50 (human MC4R) of 35 nM and an EC50 (rat MC4R [2]) of 15.8 nM. For the same compound, the Emax (rat MC4R [2]; COS-7, read-out: Emax on rat MC4R relative to alpha-MSH Emax) was ~40%.

For `CC(=O)N[C@@H](C)c1cc(Cl)ccc1C1CCN(C(=O)[C@@H]2CN(C(C)(C)C)C[C@H]2c2ccc(F)cc2F)CC1` [MK-0493], the “effect on GLP-1 and PYY secretion” value [3] is given as “increased”.

With `OC[C@H]1OC(O)[C@H](O)[C@@H](O)[C@@H]1O` (stereo partly shown) [glucose] the “total GLP-1 output during first luminal glucose stimulation, control experiment” value ([4]; luminal glucose 20% w/v, 15 min, baseline 1.8 ± 0.2 pmol, P <0.001, n = 6) was 4.8 ± 0.34 pmol, the “total GLP-1 output during first luminal glucose stimulation, glucose + HS014 experiment (before HS014)” value ([4]; luminal glucose 20% w/v, 15 min, baseline 2.0 ± 0.5 pmol, P = 0.01, n = 6) was 5.6 ± 1.0 pmol and the “fold increase of GLP-1 secretion by luminal glucose” value ([4]; luminal glucose infusion) was 2–3 fold.

For bombesin, the “effect on GLP-1 output (positive control)” value [5] was “robustly increased GLP-1 output” and the “effect on GLP-1 output (positive control)” value [6] was “robustly increased GLP-1 output”.

— publication PMC8375664 (Frontiers in Endocrinology, 2021)
